# Columns and labels:
# [1] = tested on: K562 CRISPRi or CRISPRa cells; IFITM1, IFITM2, IFITM3; test: Viability of K562 CRISPRi/CRISPRa cells with modulated IFITM expression (chemical-genetic interaction, IC50 shift); assay type: cell-based; settings: for IFITM assistance versus linker length: linker series: BisRoc-1 (PEG11), BisRoc-2 (PEG4), BisRoc-3 (PEG2), rocaglamide (no linker), FIG. 2B
# From the text: FIGS. 1A-1E. Longer linker length correlates with greater IFITM assistance in a series of linked rocaglamide analogs. FIG. 1A: Crystal structure of rocaglamide bound to eIF4A1 and polypurine RNA showing adjacent symmetry mates (PDB, 5ZC9). The distance between RocA molecules bound to adjacent eIF4A1 proteins is approximately 14 Å and the solvent exposed amide on RocA offers a handle for chemical modification. FIG. 1B: Chemical structures of select eIF4A1 inhibitors. FIGS. 1C-1D: Viability of K562 CRISPRi (FIG. 1C) or CRISPRa (FIG. 1D) cells expressing sgRNAs treated with BisRoc-1 or rocaglamide. Data represent means of three biological replicates; error bars denote SD. FIG. 1E: Chemical structures of a BisRoc linker length series (see also FIG. 2B).
# FIGS. 2A-2C. IFITM proteins assist the cellular activity of diverse linked chemotypes. FIG. 2A: Heavy atom skeletons of compounds assessed for IFITM assistance (see also FIG. 3 for chemical structures). Compounds were categorized as non-linked chemotypes (compounds 3, 6, and 8; black), linked chemotypes with short linkers (compounds 10 and 13; light gray), or linked chemotypes with long linkers (compounds 15 and 17; medium gray). FIG. 2B: Chemical-genetic interaction map of inhibitors in FIG. 2A with IFITM1, IFTM2, and IFITM3. Potency, as measured by dose-response IC50 in a cell viability assay (see also FIG. 1D for example source data), was normalized to that of non-sgRNA-expressing K562 CRISPRi or CRISPRa cells. Physicochemical properties, including molecular weight (MW) and number of rotatable bonds, with their respective traditional thresholds for drug-likeness are indicated (right). Data represent means of three biological replicates. FIG. 2C: Map of chemical space populated by 301 kinase inhibitors in clinical development (black), 2258 PROTACs reported in the literature (light gray), and 2 linked chemotypes described herein (medium gray). Boundaries represent traditional guidelines for drug-likeness.
# Given the ubiquitous presence of IFITM proteins in cells, we hypothesized that the cellular uptake of other linked inhibitors in the literature could also be assisted by IFITM proteins. While not generally as large as the linked chemotypes described above, PROTACs are likewise composed of two chemical entities covalently attached by a flexible tether (15). […] Thus, we included several PROTACs and their non-linked parent inhibitors in an expanded survey of chemical-genetic interactions with IFITM proteins (FIG. 2A, FIGS. 3A-3B, and FIG. 4). We treated our K562 CRISPRi and CRISPRa cells with these inhibitors and evaluated differences in potency resulting from IFITM protein expression modulation, as measured by half-maximal inhibitory concentration (IC50) shift in a cell viability assay. […] The inverse finding, resistance to linked chemotypes, resulted from gene knockdown (FIG. 2B). Included among these compounds were a systematic linker series of BisRoc-1 analogs (FIG. 1E). […] The same trend was corroborated by the diverse ensemble of all molecules tested (FIG. 2B): the magnitudes of chemical-genetic interactions correlated with inhibitor size (molecular weight) and flexibility (number of rotatable bonds). […] Despite their cellular activities, the physicochemical properties of these linked chemotypes largely violate Lipinski's (1) and Veber's (2) classic guidelines (FIG. 2B and FIG. 4), raising the need for a revised drug design framework that considers IFITM-assisted uptake and other cellular import processes. […]
# [2] = tested on: interferon-induced transmembrane (IFITM) proteins; test: Genome-scale chemical-genetic identification of uptake pathway; assay type: cell-based; settings: genome-scale chemical-genetic approaches
# From the text: We devised additional linked inhibitors targeting EIF4A1 (BisRoc-1, molecular weight: 1466 g/mol) whose uptake we predicted would be assisted by IFITM proteins. This uptake pathway should provide a general mechanism by which large, flexibly linked chimeric molecules can gain assisted access to the cytosol, including compounds with mechanisms of action not easily accessible to traditional drug-like molecules.
# MTOR = settings: cited from earlier work
# [3] = in vivo; cited from earlier work
# KBM7 cells; IFITM2 = settings: IFITM2 knockout, not validated; cited from earlier work
structure (smiles),measurement,setting,value
COc1ccc([C@@]23Oc4cc(OC)cc(OC)c4[C@]2(O)[C@H](O)[C@H](C(=O)NCCOCCOCCOCCOCCOCCOCCOCCOCCOCCOCCOCCNC(=O)[C@H]2[C@@H](O)[C@@]4(O)c5c(OC)cc(OC)cc5O[C@@]4(c4ccc(OC)cc4)[C@@H]2c2ccccc2)[C@H]3c2ccccc2)cc1 [BisRoc-1],overall modulation in the cellular activity accounted for by IFITM proteins,"[1]; K562 CRISPRi/a cells, FIG. 1C-1D",6.2 fold
same,IFITM assistance versus linker length,[1],longer linker lengths correlated with greater IFITM assistance
COc1ccc([C@@]23Oc4cc(OC)cc(OC)c4[C@]2(O)[C@H](O)[C@H](C(=O)NCCOCCOCCOCCOCCNC(=O)[C@H]2[C@@H](O)[C@@]4(O)c5c(OC)cc(OC)cc5O[C@@]4(c4ccc(OC)cc4)[C@@H]2c2ccccc2)[C@H]3c2ccccc2)cc1 [BisRoc-2],IFITM assistance versus linker length,[1],longer linker lengths correlated with greater IFITM assistance
COc1ccc([C@@]23Oc4cc(OC)cc(OC)c4[C@]2(O)[C@H](O)[C@H](C(=O)NCCOCCOCCNC(=O)[C@H]2[C@@H](O)[C@@]4(O)c5c(OC)cc(OC)cc5O[C@@]4(c4ccc(OC)cc4)[C@@H]2c2ccccc2)[C@H]3c2ccccc2)cc1 [BisRoc-3],IFITM assistance versus linker length,[1],longer linker lengths correlated with greater IFITM assistance
CO[C@H]1C[C@@H]2CC[C@@H](C)[C@@](O)(O2)C(=O)C(=O)N2CCCC[C@H]2C(=O)O[C@H]([C@H](C)C[C@@H]2CC[C@@H](OCCOCc3cn(CCOCCOCCOCCOCCOCCOCCOCCOCCC(=O)NCCCCn4nc(-c5ccc6oc(N)nc6c5)c5c(N)ncnc54)nn3)[C@H](OC)C2)CC(=O)[C@H](C)/C=C(\C)[C@@H](O)[C@@H](OC)C(=O)[C@H](C)C[C@H](C)C=CC=CC=C1C [RapaLink-1],modulation of cell permeability by IFITM pathway,[2],modulates the cell permeability
same,activity in vivo,MTOR,highly active in vivo
same,blood-brain barrier penetration,[3],penetrates the blood-brain barrier
Cc1sc2c(c1C)C(c1ccc(Cl)cc1)=N[C@@H](CC(=O)NCCCCCCCCNC(=O)COc1cccc3c1C(=O)N(C1CCC(=O)NC1=O)C3=O)c1nnc(C)n1-2 (stereo partly drawn) [dBET6],IFITM2 chemical-genetic interaction,KBM7 cells; IFITM2,statistically significant resistance chemical-genetic interaction
COc1ccc([C@@]23Oc4cc(OC)cc(OC)c4[C@]2(O)[C@H](O)[C@H](C(=O)N(C)C)[C@H]3c2ccccc2)cc1 [rocaglamide],IFITM assistance versus linker length,[1],longer linker lengths correlated with greater IFITM assistance

# From patent US20260345791A1, “EIF4A INHIBITORS AND USES THEREOF” (The Regents of the University of California, priority 2022, published 2026)
